Measured values as given in patent US7628979B1, “Use of calco oil blue V in bait formulations for marking and controlling subterranean termites” (The United States of America as represented by the …, priority 2005, dated 2009).

Key:
C. formosanus = assay: Preliminary laboratory dose-range test of colored bait matrix; type: in vivo, Coptotermes formosanus
Experimental: (3) Incorporation of Nutrients. The dry colored alpha cellulose was then mixed with the nutritive liquid (described in U.S. Pat. No. 6,585,991 which is incorporated by reference in its entirety). The nutritive liquid was prepared by weighing 1.25 g lecithin (USB #18240), 0.450 g ergosterol (Sigma #E-6510), 3.75 g ethyl alcohol (Quantum MT #194A31), and 650 g drinking water (Barbe's dairy, West Wego, La.) into a 1 L glass bottle and mixing well using a glass bar. The opening of the bottle was covered with a foam stopper, the bottle cap was loosely placed on top of the stopper, and the stopper covered with foil. After autoclaving for 20 min at 120° C., the bottle was closed tightly and allowed to cool down. Under a laminar flow hood, yeast hydrolysate (ICN Biomed. #103304) was added to the lecithin-containing mixture using a sterile spatula and the mixture was shaken until the yeast hydrolysate was incorporated. The bottle was tightly closed. Using a sterile spatula, 667 ml lecithin-yeast hydrolysate-containing mixture was added to 333 g colored cellulose (at each of the calco oil blue V concentrations) and mixed well. The beaker was covered with foil and plastic to avoid contamination and loss of water. This mixture was stored at 5° C. up to 8 months or at room temperature for at least a month. The mixture was compacted and divided into pieces of about 25-50 g each at colorant concentrations of 50, 100, 225, 250, 500, and 750 ppm respectively. Chitin synthesis inhibitors such as Diflubenzuron (Ensystex) at a given concentration of 50, 100, 175, 200, and 250 ppm were individually weighed, dissolved in minimal amount of acetone (J. T. Baker #9010-03) in a 50 ml plastic tube, and added to the sterile liquid solution.
A concentration of 225 ppm Calco oil blue was effective as bait active ingredient taking a mean time to kill C. formosanus of 2.0 months under laboratory conditions.

[1] = test system: Formosan subterranean termites; assay: In-field marking and control, bait at infested trees, sites 1 and 2; type: in vivo; conditions: for Bait consumption: 250 ppm bait
Text: (§1) Formosan subterranean termite and native subterranean termite infested trees (Water Oaks and Legastrums) in New Orleans, La. were chosen for this study. Three sites were selected located at the Southern Regional Research Center campus. Site 1 was located near the service building next to an old water oak tree, site 2 was located in the compound area near ligastrum trees, and site 3 near ligastrum trees outside the compound area. Sites 1 and 2 were active with Formosan subterranean termites and site 3 with Eastern subterranean termites.
(§2) The colored bait matrix at 250 ppm was encapsulated as described above and placed directly in the base of the trees where termites were foraging, making sure that the encapsulated colored bait matrix was covered with soil or with a piece of wood or brick on top of it to prevent desiccation. The bait was periodically inspected for consumption and termite activity. The field study started in early August and was completed by the end of the following June. During winter (December-February) termite activity decreased considerably, but by April termite activity and foraging resumed and the blue colored matrix was replaced by bait formulation containing 250 ppm of chitin synthesis inhibitors to kill the colonies. Diflubenzuron was used in 2 of the sites and chlorfluazuron was used in the remaining site.

[2] = test system: Eastern subterranean termites; assay: In-field marking and control, bait at infested trees, site 3; type: in vivo; conditions: Site 3 (Ligastrum), 250 ppm bait
Text: as §1, §2

Compound: CCCCC(CC)CNc1ccc(NCC(CC)CCCC)c2c1C(=O)c1ccccc1C2=O (stereo not shown) [Calco oil blue V, 9,10-anthracenedione, 1,4-bis[(2-ethylhexyl)amino]]
- mean time to kill C. formosanus (C. formosanus; 225 ppm Calco oil blue, laboratory conditions): 2.0 months
- repellence to the termites (C. formosanus; 225 ppm blue colorant in combination with a chitin synthesis inhibitor (50-175 ppm)): without any signs of repellence
- time to induce FS termite mortality (C. formosanus; 225 ppm blue colorant in combination with a chitin synthesis inhibitor (50-175 ppm), preliminary results): ≤ 2 months
- repellence to the termites (C. formosanus; colorant doses higher than 500 ppm): Some repellence was observed
- Bait consumption (C. formosanus; concentrations greater than 500 and up to 1000 ppm): bait consumption was reduced
- mean killing times (C. formosanus; concentrations greater than 500 and up to 1000 ppm, compared with 225 ppm): not significantly different
- Bait consumption ([1]; Site 1 (Water Oak), day 7): 0 g
- Bait consumption ([1]; Site 1 (Water Oak), day 14): 150 g
- Bait consumption ([1]; Site 1 (Water Oak), day 21): 350 g
- Bait consumption ([1]; Site 1 (Water Oak), day 27): 400 g
- Bait consumption ([1]; Site 1 (Water Oak), day 46): 400 g
- Bait consumption ([1]; Site 1 (Water Oak), day 56): 100 g
- Bait consumption ([1]; Site 1 (Water Oak), day 73): 0 g
- Bait consumption ([1]; Site 1 (Water Oak), day 83): 0 g
- Bait consumption ([1]; Site 1 (Water Oak), day 102): 0 g
- Bait consumption ([1]; Site 1 (Water Oak), day 159): 0 g
- Bait consumption ([1]; Site 1 (Water Oak), day 221): 0 g
- Bait consumption ([1]; Site 1 (Water Oak), day 251): 0 g
- Bait consumption ([1]; Site 1 (Water Oak), day 281): 0 g
- Bait consumption ([1]; Site 2 (Ligastrum), day 7): 0 g
- Bait consumption ([1]; Site 2 (Ligastrum), day 14): 200 g
- Bait consumption ([1]; Site 2 (Ligastrum), day 21): 450 g
- Bait consumption ([1]; Site 2 (Ligastrum), day 27): 300 g
- Bait consumption ([1]; Site 2 (Ligastrum), day 46): 250 g
- Bait consumption ([1]; Site 2 (Ligastrum), day 56): 350 g
- Bait consumption ([1]; Site 2 (Ligastrum), day 73): 250 g
- Bait consumption ([1]; Site 2 (Ligastrum), day 83): 300 g
- Bait consumption ([1]; Site 2 (Ligastrum), day 102): 400 g
- Bait consumption ([1]; Site 2 (Ligastrum), day 159): 200 g
- Bait consumption ([1]; Site 2 (Ligastrum), day 221): 0 g
- Bait consumption ([1]; Site 2 (Ligastrum), day 251): 0 g
- Bait consumption ([1]; Site 2 (Ligastrum), day 281): 0 g
- time termite workers remained visibly colored after removing the blue colored bait formulation ([1]; field, 250 ppm): 1 week
- marking of termites after feeding on colored bait matrix ([1]; field, 250 ppm colored bait matrix without diflubenzuron): visibly colored blue
- period to eliminate the colonies ([1]; field, calco oil blue bait followed by bait with 250 ppm chitin synthesis inhibitors): 2 months
- effect on termite colonies and termite activity ([1]; field, matrix with calco oil blue V alone, 250 ppm): did not kill the termite colonies nor reduce termite activity
- Bait consumption ([2]; day 7): 0 g
- Bait consumption ([2]; day 14): 200 g
- Bait consumption ([2]; day 21): 150 g
- Bait consumption ([2]; day 27): 150 g
- Bait consumption ([2]; day 46): 100 g
- Bait consumption ([2]; day 56): 0 g
- Bait consumption ([2]; day 73): 0 g
- Bait consumption ([2]; day 83): 0 g
- Bait consumption ([2]; day 102): 0 g
- Bait consumption ([2]; day 159): 0 g
- Bait consumption ([2]; day 221): 0 g
- Bait consumption ([2]; day 251): 0 g
- Bait consumption ([2]; day 281): 0 g
